Measurements as given in patent publication US9499550B2 (BRISTOL-MYERS SQUIBB COMPANY, priority 2012, dated 2016).
Like-named read-outs stand apart in the source and are kept apart here.

Experiments:
[1] = system: HCV genotype 1a (H77 strain) replicon in HUH-7 cells; test: HCV replicon luciferase reporter assay, genotype 1a; format: cell-based; settings: Hepatitis C virus, Huh-7, 72 h, 3 days incubation
Summary of the method: (§1)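 Replicon inhibition for both genotypes was measured as Renilla luciferase signal (EnduRen, 7.5 μM final, 2 h) after 3-day, 37° C exposure of replicon-bearing HUH-7 cells in 4% FCS DMEM, 0.5% DMSO. The 1b construct carries S1179I; the 1a H77 construct carries P1496L and S2204I. Twenty-point, 3-fold dilutions were fitted four-parametrically for EC50, and CC50 was taken from multiplexed Cell Titer-Blue.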

[2] = system: HCV genotype 1b (Con1) replicon in HUH-7 cells; test: HCV replicon luciferase reporter assay, genotype 1b; format: cell-based; settings: Hepatitis C virus, Huh-7, 72 h, 3 days incubation
Summary of the method: as §1

[3] = HCV genotype 1a replicon luciferase assay, range class, read-out: LE_1a (EC50, range)
[4] = HCV genotype 1b replicon luciferase assay, range class, read-out: LE_1b (EC50, range)
[5] = HCV genotype 1a replicon luciferase, read-out: LE_1a (EC50, range)
[6] = HCV genotype 1b replicon luciferase, read-out: LE_1b (EC50, range)

Structure (SMILES) | EC50 [1, 3] | EC50 [2, 4] | EC50 [1, 5] | EC50 [2, 6] | EC50 ([1]; HCV genotype 1a replicon luciferase, read-out: LE_1a (EC50)) | EC50 ([2]; HCV genotype 1b replicon luciferase, read-out: LE_1b (EC50))
COc1cnc(O[C@@H]2C[C@H]3C(=O)N[C@]4(C(=O)NS(=O)(=O)C5(F)CC5)C[C@H]4/C=C\CC[C@H](C)C[C@@H](C)[C@H](NC(=O)OC(C)(C)C(F)(F)F)C(=O)N3C2)c2ccccc12 [Compound 15, 1,1,1-trifluoro-2-methylpropan-2-yl((2R,6S,7R,9S,13aS,14aR,16aS,Z)-14a-(((1-fluorocyclopropyl)sulfonyl)carbamoyl)-2-((4-methoxyisoquinolin-1-yl)oxy)-7,9-dimethyl-5,16-dioxo-1,2,3,5,6,7,8,9,10,11,13a,14,14a,15,16,16a-hexadecahydrocyclopropa[e]pyrrolo[1,2-a][1,4]diazacyclopentadecin-6-yl)carbamate] | < 5.46 nM | < 5.46 nM |  |  |  | 
COc1ccc2c(O[C@@H]3C[C@H]4C(=O)N[C@]5(C(=O)NS(=O)(=O)C6(CF)CC6)C[C@H]5/C=C\CC[C@@H](C)C[C@@H](C)[C@H](NC(=O)OC(C)(C)C)C(=O)N4C3)nc(N(C)C)nc2c1 [Compound 3006, tert-butyl ((2R,6S,7R,9R,13aS,14aR,16aS,Z)-2-((2-(dimethylamino)-7-methoxyquinazolin-4-yl)oxy)-14a-(((1-(fluoromethyl)cyclopropyl)sulfonyl)carbamoyl)-7,9-dimethyl-5,16-dioxo-1,2,3,5,6,7,8,9,10,11,13a,14,14a,15,16,16a-hexadecahydrocyclopropa[e]pyrrolo[1,2-a][1,4]diazacyclopentadecin-6-yl)carbamate] | < 5.46 nM | < 5.46 nM |  |  |  | 
CCOc1cc2ccnc(O[C@@H]3C[C@H]4C(=O)N[C@]5(C(=O)NS(=O)(=O)C6CC6)C[C@H]5/C=C\CC[C@@H](C)C[C@@H](C)[C@H](NC(=O)OC(C)(C)C)C(=O)N4C3)c2cc1F [Compound 5399, tert-butyl ((2R,6S,7R,9R,13aS,14aR,16aS,Z)-14a-((cyclopropylsulfonyl)carbamoyl)-2-((6-ethoxy-7-fluoroisoquinolin-1-yl)oxy)-7,9-dimethyl-5,16-dioxo-1,2,3,5,6,7,8,9,10,11,13a,14,14a,15,16,16a-hexadecahydrocyclopropa[e]pyrrolo[1,2-a][1,4]diazacyclopentadecin-6-yl)carbamate] |  |  | 0.51 to 1 nM | 0.1 to 0.5 nM |  | 
C[C@H]1CC/C=C\[C@@H]2C[C@@]2(C(=O)NS(=O)(=O)C2CC2)NC(=O)[C@@H]2C[C@@H](Oc3nc(OCC(F)F)cc4c(Cl)cccc34)CN2C(=O)[C@@H](NC(=O)OC(C)(C)C)[C@H](C)C1 [Compound 1075, tert-butyl ((2R,6S,7R,9S,13aS,14aR,16aS,Z)-2-((5-chloro-3-(2,2-difluoroethoxy)isoquinolin-1-yl)oxy)-14a-((cyclopropylsulfonyl)carbamoyl)-7,9-dimethyl-5,16-dioxo-1,2,3,5,6,7,8,9,10,11,13a,14,14a,15,16,16a-hexadecahydrocyclopropa[e]pyrrolo[1,2-a][1,4]diazacyclopentadecin-6-yl)carbamate] | < 5.46 nM | < 5.46 nM |  |  |  | 
COc1ccc2c(O[C@@H]3C[C@H]4C(=O)N[C@]5(C(=O)NS(=O)(=O)C6(C)CC6)C[C@H]5/C=C\CC[C@@H](C)C[C@@H](C)[C@H](NC(=O)OC(C)(C)C)C(=O)N4C3)ncc(N3CCOCC3)c2c1 [Compound 4137, tert-butyl (2R,6S,7R,9R,13aS,14aR,16aS,Z)-2-(6-methoxy-4-morpholinoisoquinolin-1-yloxy)-7,9-dimethyl-14a-(1-methylcyclopropylsulfonylcarbamoyl)-5,16-dioxo-1,2,3,5,6,7,8,9,10,11,13a,14,14a,15,16,16a-hexadecahydrocyclopropa[e]pyrrolo[1,2-a][1,4]diazacyclopentadecin-6-ylcarbamate] |  |  | < 5.46 nM | < 5.46 nM |  | 
CC[C@@H]1C[C@H](C)CC/C=C\[C@@H]2C[C@@]2(C(=O)NS(=O)(=O)C2CC2)NC(=O)[C@@H]2C[C@@H](Oc3nc4cc(OC)ccc4nc3O)CN2C(=O)[C@H]1NC(=O)OC(C)(C)C [Compound 4262] |  |  | 35 to 620 nM | 35 to 620 nM |  | 
[2H]C([2H])([2H])C(OC(=O)N[C@@H]1C(=O)N2C[C@H](Oc3nnc(OCC)c4ccccc34)C[C@H]2C(=O)N[C@]2(C(=O)NS(=O)(=O)C3(C)CC3)C[C@H]2/C=C\CC[C@H](C)C[C@H]1C)(C([2H])([2H])[2H])C(F)(F)F [Compound 5032] |  |  | 4.82 to 103 nM | 4.82 to 103 nM |  | 
CCOc1nnc(O[C@@H]2C[C@H]3C(=O)N[C@]4(C(=O)NS(=O)(=O)C5(C)CC5)C[C@H]4/C=C\CC[C@@H](C)C[C@@H](C)[C@H](NC(=O)OC(C)(C)C)C(=O)N3C2)c2ccccc12 [Compound 5029, tert-butyl ((2R,6S,7R,9R,13aS,14aR,16aS,Z)-2-((4-ethoxyphthalazin-1-yl)oxy)-7,9-dimethyl-14a-(((1-methylcyclopropyl)sulfonyl)carbamoyl)-5,16-dioxo-1,2,3,5,6,7,8,9,10,11,13a,14,14a,15,16,16a-hexadecahydrocyclopropa[e]pyrrolo[1,2-a][1,4]diazacyclopentadecin-6-yl)carbamate] |  |  | < 5.46 nM | < 5.46 nM |  | 
COc1ccc2c(O[C@@H]3C[C@H]4C(=O)N[C@]5(C(=O)NS(=O)(=O)C6CC6)C[C@H]5/C=C\CC[C@@H](C)C[C@@H](C)[C@H](NC(=O)NC(C)(C)C)C(=O)N4C3)nc(-c3ccc(OC(C)C)nc3)cc2c1 [Compound 5221, (2R,6S,7R,9R,13aS,14aR,16aS,Z)-6-(3-(tert-butyl)ureido)-N-(cyclopropylsulfonyl)-2-((3-(6-isopropoxypyridin-3-yl)-6-methoxyisoquinolin-1-yl)oxy)-7,9-dimethyl-5,16-dioxo-1,2,3,5,6,7,8,9,10,11,13a,14,14a,15,16,16a-hexadecahydrocyclopropa[e]pyrrolo[1,2-a][1,4]diazacyclopentadecine-14a-carboxamide] |  |  | < 5.46 nM | < 5.46 nM |  | 
CC[C@@H]1C[C@H](C)CC/C=C\[C@@H]2C[C@@]2(C(=O)NS(=O)(=O)C2(C)CC2)NC(=O)[C@@H]2C[C@@H](Oc3nc(-c4ccc(OC(C)C)cn4)cc4cc(OC)ccc34)CN2C(=O)[C@H]1NC(=O)OC(C)(C)C [Compound 5481, tert-butyl ((2R,6S,7R,9R,13aS,14aR,16aS,Z)-7-ethyl-2-((3-(5-isopropoxypyridin-2-yl)-6-methoxyisoquinolin-1-yl)oxy)-9-methyl-14a-(((1-methylcyclopropyl)sulfonyl)carbamoyl)-5,16-dioxo-1,2,3,5,6,7,8,9,10,11,13a,14,14a,15,16,16a-hexadecahydrocyclopropa[e]pyrrolo[1,2-a][1,4]diazacyclopentadecin-6-yl)carbamate] |  |  | 1.01 to 5 nM | 1.01 to 5 nM |  | 
COc1ccc2c(O[C@@H]3C[C@H]4C(=O)N[C@]5(C(=O)NS(=O)(=O)C6CC6)C[C@H]5/C=C\CC[C@H](C)C[C@@H](C)[C@H](NC(=O)O[C@@H]5C[C@@H]6C[C@@H]6C5)C(=O)N4C3)nc(-c3ccc(OC)c(Cl)c3)cc2c1 [Compound 3053, (1R,3r,5S)-bicyclo[3.1.0]hexan-3-yl((2R,6S,7R,9S,13aS,14aR,16aS,Z)-2-((3-(3-chloro-4-methoxyphenyl)-6-methoxyisoquinolin-1-yl)oxy)-14a-((cyclopropylsulfonyl)carbamoyl)-7,9-dimethyl-5,16-dioxo-1,2,3,5,6,7,8,9,10,11,13a,14,14a,15,16,16a-hexadecahydrocyclopropa[e]pyrrolo[1,2-a][1,4]diazacyclopentadecin-6-yl)carbamate] | < 5.46 nM | < 5.46 nM |  |  |  | 
CC[C@@H]1C[C@@H](C)CC/C=C\[C@@H]2C[C@@]2(C(=O)NS(=O)(=O)C2(C)CC2)NC(=O)[C@@H]2C[C@@H](Oc3nccc4c5c(ccc34)OCCO5)CN2C(=O)[C@H]1NC(=O)OC(C)(C)C(C)(F)F [Compound 5331, 3,3-difluoro-2-methylbutan-2-yl((2R,6S,7R,9S,13aS,14aR,16aS,Z)-2-((2,3-dihydro-[1,4]dioxino[2,3-f]isoquinolin-7-yl)oxy)-7-ethyl-9-methyl-14a-(((1-methylcyclopropyl)sulfonyl)carbamoyl)-5,16-dioxo-1,2,3,5,6,7,8,9,10,11,13a,14,14a,15,16,16a-hexadecahydrocyclopropa[e]pyrrolo[1,2-a][1,4]diazacyclopentadecin-6-yl)carbamate] |  |  | 4.82 to 103 nM | < 5.46 nM | 12.8 nM | 3.94 nM
CC[C@@H]1C[C@H](C)CC/C=C\[C@@H]2C[C@@]2(C(=O)NS(=O)(=O)C2CC2)NC(=O)[C@@H]2C[C@@H](Oc3ncc(C(=O)O)c4cc(OC)ccc34)CN2C(=O)[C@H]1NC(=O)OC(C)(C)C [Compound 4278, 1-(((2R,6S,7R,9R,13aS,14aR,16aS,Z)-6-((tert-butoxycarbonyl)amino)-14a-((cyclopropylsulfonyl)carbamoyl)-7-ethyl-9-methyl-5,16-dioxo-1,2,3,5,6,7,8,9,10,11,13a,14,14a,15,16,16a-hexadecahydrocyclopropa[e]pyrrolo[1,2-a][1,4]diazacyclopentadecin-2-yl)oxy)-6-methoxyisoquinoline-4-carboxylic acid] |  |  | 35 to 620 nM | 35 to 620 nM |  | 
